The test system of data set [1] is human T cells. The following applies: cited from earlier work.
Data set [2] relates to HIV-1 JR-CSF. Put plainly: Established HIV-1 infection of CD4+ T-lymphocytes, single versus daily drug addition, p24 ELISA. The data set is classed as cell-based. To be noted: 2 μM three days post-infection then daily 0.5 μM; after fifteen days. On the procedure:
CD4+ T-lymphocytes (A) and Huh7.5.1 cells (B) (0.5 x 10^6 cells) (triplicates) were exposed to HIV-1 JR-CSF and HCV JFH-1. Drugs (2 μM) were added 3 h pre-viral exposure (top panels) or 3 days post-viral exposure (bottom panels). Viral replications were monitored by HIV-1 p24 and HCV core ELISAs. C. CD4+ T-lymphocytes (0.5 x 10^6 cells) (triplicates) were exposed to HIV-1 JR-CSF. Drugs were initially added 3 days post-viral exposure (2 μM) and then daily (0.5 μM). Viral replications were monitored by HIV-1 p24 and HCV core ELISAs. […] D. Model for the HIV-1/HCV co-culture system.
(In general: ELISA stands for enzyme-linked immunosorbent assay.)

Non-standard residues stand in square brackets, D forms with d. Residues, ends and D or L forms follow the SMILES beside them. NMeThr(4R-Me,4-(CH2)6NHAc) = CN[C@H](C(=O)O)[C@H](O)[C@H](C)CCCCCCNC(C)=O; NMeL = CN[C@@H](CC(C)C)C(=O)O; NMeV = CN[C@H](C(=O)O)C(C)C; dNMeA = CN[C@H](C)C(=O)O; Abu = CC[C@H](N)C(=O)O

As to `C/C=C/C[C@@H](C)[C@@H](O)[C@H]1C(=O)N[C@@H](CC)C(=O)N(C)[C@H](C)C(=O)N(CC)[C@@H](C(C)C)C(=O)N[C@@H](C(C)C)C(=O)N(C)[C@@H](CC(C)C)C(=O)N[C@@H](C)C(=O)N[C@H](C)C(=O)N(C)[C@@H](CC(C)C)C(=O)N(C)[C@@H](CC(C)C)C(=O)N(C)[C@@H](C(C)C)C(=O)N1C` [ALV, Alisporivir], the “Cellular toxicity (in words)” value in data set [1] is given as “lack of cellular toxicity”.
Regarding `CC[C@@H]1NC(=O)[C@H]([C@H](O)[C@H](C)CCCCCCNC(C)=O)N(C)C(=O)[C@H](C(C)C)N(C)C(=O)[C@H](CC(C)C)N(C)C(=O)[C@H](CC(C)C)N(C)C(=O)[C@@H](C)NC(=O)[C@H](C)NC(=O)[C@H](CC(C)C)N(C)C(=O)[C@H](C(C)C)NC(=O)[C@H](CC(C)C)N(C)C(=O)[C@@H](C)N(C)C1=O` [CPI-431-32] (cyclo(A[dA][NMeL][NMeL][NMeV][NMeThr(4R-Me,4-(CH2)6NHAc)][Abu][dNMeA][NMeL]V[NMeL])), the “Effect on HIV-1 replication (in words)” value in data set [2] is “almost totally repressed HIV-1 replication”.
